Assay results published in US12605351B2, “Method for producing a composition comprising a 3-O-p-coumaroyl ester of tormentic acid from a plant cell culture, applications thereof as antiparasitic agent for the treatment of trypanosomiasis” (LUXEMBOURG INSTITUTE OF SCIENCE AND TECHNOLOGY, priority 2019, dated 2026).
Read-outs that look alike come from different tables or passages of the source.

Tests used:
[1] = system: Trypanosoma brucei brucei bloodstream forms (strain 427); assay: In vitro antitrypanosomal activity on Tbb BSF; format: cell-based; conditions: for antitrypanosomal activity compared with parent ursolic/oleanolic acid: in words; for SI (Selectivity Index): cytotoxicity in WI38 compared to Tbb
Protocol: Antiparasitic activities were evaluated in vitro on Trypanosoma brucei brucei bloodstream forms (strain 427) (Tbb BSF). Tbb BSF were cultured in vitro at 37° C. with 5% CO2 in HMI9 medium containing 10% heat-inactivated fetal bovine serum, […] ([…]) and L-cysteine ([…]).
(§1) In vitro tests were performed as previously described by Hoet S. et al. (Planta Med., 2004, 70, 407-413, doi:10.1055/s-2004-818967). Suramine (a commercial anti-trypanosomal drug) and camptothecin were used as positive controls. Stock solutions of compounds to be tested were prepared at a concentration of 10 mg/mL in DMSO. The solutions were further diluted in medium (described in 1.1) to give 0.1 mg/mL stock solutions. Extracts and compounds were tested in eight serial three-fold dilutions (final concentration range: 50-0.02 mg/L) in 96-well microliter plates. All tests were performed at least in duplicate.

[2] = system: Human normal fibroblast cell line (WI-38); assay: cells; format: cell-based; conditions: for cytotoxicity compared with parent oleanolic acid: in words
Protocol: The cytotoxicity of tested compounds was evaluated in parallel on a Human normal fibroblast cell line (WI-38) cultivated in a humidified atmosphere with 5% CO2 at 37° C. Human normal fibroblast cell line (WI-38) was cultivated in DMEM medium (Life Technologies) containing 4 mM L-glutamine, 1 mM sodium pyruvate supplemented with 10% fetal bovine serum (Sigma) and penicillin-streptomycin (100 UI/mL).
as §1, with “Suramine” for “In vitro tests were performed as previously described by Hoet S. et al. (Planta Med., 2004, 70, 407-413, doi:10.1055/s-2004-818967). Suramine”

[3] = system: Trypanosoma brucei brucei; assay: In vivo anti-trypanosomal activity in infected mice; parameters: species or system NMRI mice; conditions: for survival of infected mice in comparison to the untreated group: 50 mg/kg/d i.p. day 3-7 post-infection, followed to day 19
From the text: (§2) NMRI mice (6-8 weeks of age) obtained from Envigo Laboratories (The Netherlands) were used. All in vivo experiments performed were approved by the Ethical Committee for animals use at the Health Sciences Sector of the Catholic University of Louvain (2017/UCL/MD/017).
Mice were randomly divided into 6 mice per group for 3-O-cis/trans-p-coumaroyltormentic acid (mixture of cis and trans) and ursolic acid, 4 for positive control (Suramine) and 7 for the negative control, and were infested intraperitoneally with 10^4 Trypanosoma brucei brucei. All compounds were solubilized in the vehicle (water-tween 80-ethanol) and administered intraperitoneally. 3-O-cis/trans-p-coumaroyltormentic acid or ursolic acid (UA) were administered at 50 mg/kg at day 3 after infection with the parasite and then every day until day 7 post-infection. Suramine (0.5 mg/kg) was administered while vehicle was used as a negative control. From day 3 post infection, a drop of blood collected each day from mouse-tail was used to count parasitemia.

[4] = In vivo acute toxicity test (highest tolerated dose); parameters: species or system NMRI mice; conditions: mice; for acute toxicity: intraperitoneally every 2 hours, 10-15-25-50 mg/kg, monitored 48 h
From the text: as §2
The assessment of the highest tolerated dose was based on a DNDi protocol by Loset J.-R. et al. (V. Drug Screening for Kinetoplastids Diseases. A Training Manual for Screening in Neglected Diseases-DNDi, 2009) and adapted by Beaufay C. et al. (Malar J., 2017, 16, doi:10.1186/s12936-017-2054-y). Briefly, 3-O-cis/trans-p-coumaroyltormentic acid isolated from fractions F-F9 obtained from a callus of Malus domestica Cox cultivar of example 1 above was given intraperitoneally every 2 hours to 2 mice using increasing doses: 10-15-25-50 mg/kg from stock solutions of 10 mg/mL. Mice were controlled for any health problem symptoms or behavioral changes and monitored for weight and hematocrit after each injection and every day during 48 h after administration. Main organs (heart, liver, spleen, lung and kidney) of treated mice were observed and weighed wet during autopsy. Control group received the vehicle, distilled water with 10% of tween 80-ethanol (7:3). The total injected dose was finally recorded and will ensure the non-toxicity of in vivo anti-trypanosomal test.

[5] = Table 4, same methods as example 3, read-out: Antitrypanosomal (Tbb) IC50 (μM, Mean ± Sd)
[6] = cytotoxicity, WI-38 human fibroblasts, Table 3, read-out: WI38 (IC50 μM)
[7] = cytotoxicity, WI-38 human fibroblasts, Table 3, read-out: WI38 (IC50 μg/mL)
[8] = Tbb bloodstream forms strain 427, Table 3
[9] = Tbb bloodstream forms strain 427, Table 3, read-out: Tbb (IC50 μM)
[10] = cytotoxicity, WI-38 human fibroblasts, Table 3
[11] = Table 4, same methods as example 3, read-out: Cytotoxicity (WI38) IC50 (μM, Mean ± Sd)
[12] = Trypanosoma brucei, Tbb bloodstream forms strain 427, Table 3, read-out: Tbb (IC50 μM)
[13] = Trypanosoma brucei, Tbb bloodstream forms strain 427, Table 3, read-out: Tbb (IC50 μg/mL)
[14] = listed as 3-O-p-coumaroyl ester of tormentic acid

Molecule: C[C@H]1[C@H](C)CC[C@]2(C(=O)O)CC[C@]3(C)C(=CC[C@@H]4[C@@]5(C)CC[C@H](OC(=O)/C=C/c6ccccc6)C(C)(C)C5CC[C@]43C)[C@H]12 (some centres unmarked) [Derivative (II-2), 3-O-cinnamic ursolic acid]
- IC50 [1, 5]: 68.2 ± 2.15 µM

Molecule: CC[C@@]1(O)C(=O)OCc2c1cc1n(c2=O)Cc2cc3ccccc3nc2-1 [Camptothecin]
- IC50 [2, 6]: 0.12 ± 0.03 µM
- IC50 [2, 7]: 0.04 ± 0.01 µg/mL

Molecule: Annurcoic acid
- Tbb (IC50 μg/mL) [1, 8]: 27.39 ± 2.24 µg/mL
- IC50 [1, 9]: 56.3 ± 4.6 µM
- WI38 (IC50 μg/mL) [2, 10]: 70.17 ± 6.82 µg/mL
- IC50 [2, 6]: 144 ± 14 µM

Molecule: C[C@H]1[C@H](C)CC[C@]2(C(=O)O)CC[C@]3(C)C(=CC[C@@H]4[C@@]5(C)CC[C@H](OC(=O)CCc6ccccc6)C(C)(C)C5CC[C@]43C)[C@H]12 (some centres unmarked) [Derivative (II-1), 3-O-hydrocinnamic ursolic acid]
- IC50 [1, 5]: 2.22 ± 0.66 µM
- IC50 [2]: 142 ± 3.45 µM

Molecule: CC1(C)CC[C@]2(C(=O)O)CC[C@]3(C)C(=CC[C@@H]4[C@@]5(C)CC[C@H](OC(=O)CCc6ccccc6)C(C)(C)C5CC[C@]43C)[C@@H]2C1 (some centres unmarked) [Derivative (II-6), 3-O-hydrocinnamic oleanolic acid]
- IC50 [1, 5]: 2.59 ± 0.87 µM
- antitrypanosomal activity compared with parent ursolic/oleanolic acid [1]: significantly increased activity
- IC50 [2, 11]: 23.5 ± 6.56 µM
- cytotoxicity compared with parent oleanolic acid [2]: significantly increased

Molecule: Cc1ccc(C(=O)Nc2ccc(S(=O)(=O)O)c3cc(S(=O)(=O)O)cc(S(=O)(=O)O)c23)cc1NC(=O)c1cccc(NC(=O)Nc2cccc(C(=O)Nc3cc(C(=O)Nc4ccc(S(=O)(=O)O)c5cc(S(=O)(=O)O)cc(S(=O)(=O)O)c45)ccc3C)c2)c1 [Suramine]
- IC50 [1, 12]: 0.038 ± 0.008 µM
- IC50 [1, 13]: 0.05 ± 0.01 µg/mL
- survival till the end of the experiment ([3]; end of experiment day 19 post-infection): survive during all the experimental period

Molecule: CC1(C)CC[C@]2(C(=O)O)CC[C@]3(C)C(=CC[C@@H]4[C@@]5(C)CC[C@H](OC(=O)CCc6cccc(F)c6)C(C)(C)C5CC[C@]43C)[C@@H]2C1 (some centres unmarked) [Derivative (II-9), 3-O-metafluorophenylpropionic oleanolic acid]
- IC50 [1, 5]: 1.72 ± 0.07 µM
- antitrypanosomal activity compared with parent ursolic/oleanolic acid [1]: significantly increased activity
- IC50 [2, 11]: 20.7 ± 2.25 µM
- cytotoxicity compared with parent oleanolic acid [2]: significantly increased

Molecule: C[C@H]1[C@H](C)CC[C@]2(C(=O)O)CC[C@]3(C)C(=CC[C@@H]4[C@@]5(C)C[C@@H](O)[C@H](O)C(C)(C)[C@@H]5CC[C@]43C)[C@H]12 [Corosolic Acid]
- IC50 [1, 12]: 7.3 ± 0.59 µM
- IC50 [1, 13]: 3.45 ± 0.23 µg/mL
- SI (Selectivity Index) [1]: 2.7
- IC50 [2, 6]: 19.8 ± 5.22 µM
- IC50 [2, 7]: 9.34 ± 2.47 µg/mL

Molecule: 3β-trans/cis-p-coumaroyl-2α,19α-dihydroxy-urs-12-en-28-oic acid [3-O-cis/trans-p-coumaroyltormentic acid]
- Tbb (IC50 μg/mL) [1, 8]: 0.48 ± 0.36 µg/mL
- IC50 [1, 9]: 0.75 ± 0.57 µM
- anti-trypanosomal activity, times higher than that of tormentic acid ([1]; in vitro, versus tormentic acid): 10 times
- survival of infected mice in comparison to the untreated group [3, 14]: significant increase
- survival of infected mice in comparison to the untreated group ([3]; listed as esters): significantly improved
- parasitemia ([3]; day 4 post-infection, 50 mg/kg/day intraperitoneally, 10^4 Tbb/mouse): significant decrease
- survival increase ([3]; day 12 post-infection, 50 mg/kg i.p. day 3-7): 33.3%
- total cumulative highest tolerated dose ([4]; intraperitoneal, repeated injections): 100 mg/kg
- acute toxicity [4]: no acute toxic symptom
- acute toxicity [4, 14]: no acute toxicity
- WI38 (IC50 μg/mL) [2, 10]: 28.43 ± 0.79 µg/mL
- IC50 [2, 6]: 44.8 ± 1.25 µM

Molecule: C[C@H]1[C@H](C)CC[C@]2(C(=O)O)CC[C@]3(C)C(=CC[C@@H]4[C@@]5(C)CC[C@H](OC(=O)CCc6ccccc6F)C(C)(C)C5CC[C@]43C)[C@H]12 (some centres unmarked) [Derivative (II-5), 3-O-orthofluorophenylpropionic ursolic acid]
- IC50 [1, 5]: 1.66 ± 0.38 µM
- IC50 [2]: > 132 µM

Molecule: CC1(C)CC[C@]2(C(=O)O)CC[C@]3(C)C(=CC[C@@H]4[C@@]5(C)CC[C@H](O)C(C)(C)[C@@H]5CC[C@]43C)[C@@H]2C1 [Oleanolic acid]
- IC50 [1, 12]: 5.83 ± 0.7 µM
- IC50 [1, 13]: 2.66 ± 0.32 µg/mL
- SI (Selectivity Index) [1]: 10.9
- IC50 [2, 6]: 63.3 ± 0.74 µM
- IC50 [2, 7]: 28.9 ± 0.34 µg/mL

Molecule: CC1(C)CC[C@]2(C(=O)O)CC[C@]3(C)C(=CC[C@@H]4[C@@]5(C)CC[C@H](OC(=O)CCc6ccccc6F)C(C)(C)C5CC[C@]43C)[C@@H]2C1 (some centres unmarked) [Derivative (II-10), 3-O-orthofluorophenylpropionic oleanolic acid]
- IC50 [1, 5]: 4.63 ± 0.28 µM
- IC50 [2, 11]: 18.6 ± 4.47 µM

Molecule: C[C@H]1[C@H](C)CC[C@]2(C(=O)O)CC[C@]3(C)C(=CC[C@@H]4[C@@]5(C)CC[C@H](OC(=O)CCc6cccc(F)c6)C(C)(C)C5CC[C@]43C)[C@H]12 (some centres unmarked) [Derivative (II-4), 3-O-metafluorophenylpropionic ursolic acid]
- IC50 [1, 5]: 2.67 ± 0.83 µM
- IC50 [2]: > 165 µM

Molecule: CC1(C)CC[C@]2(C(=O)O)CC[C@]3(C)C(=CC[C@@H]4[C@@]5(C)CC[C@H](OC(=O)/C=C/c6ccccc6)C(C)(C)C5CC[C@]43C)[C@@H]2C1 (some centres unmarked) [Derivative (II-7), 3-O-cinnamic oleanolic acid]
- IC50 [1, 5]: 6.31 ± 0.96 µM
- IC50 [2, 11]: 22.3 ± 1.88 µM

Molecule: C[C@@H]1CC[C@]2(C(=O)O)CC[C@]3(C)C(=CC[C@@H]4[C@@]5(C)C[C@@H](O)[C@H](O)C(C)(C)[C@@H]5CC[C@]43C)[C@@H]2[C@]1(C)O [Tormentic acid]
- Tbb (IC50 μg/mL) [1, 8]: 7.49 ± 0.33 µg/mL
- IC50 [1, 9]: 15.3 ± 0.67 µM
- WI38 (IC50 μg/mL) [2, 10]: 26.48 ± 0.33 µg/mL
- IC50 [2, 6]: 54.2 ± 0.67 µM

Molecule: CC1(C)CC[C@]2(C(=O)O)CC[C@]3(C)C(=CC[C@@H]4[C@@]5(C)CC[C@H](OC(=O)CCc6ccc(F)cc6)C(C)(C)C5CC[C@]43C)[C@@H]2C1 (some centres unmarked) [Derivative (II-8), 3-O-parafluorophenylpropionic oleanolic acid]
- IC50 [1, 5]: 2.88 ± 1.11 µM
- antitrypanosomal activity compared with parent ursolic/oleanolic acid [1]: significantly increased activity
- IC50 [2, 11]: 16.3 ± 3.26 µM
- cytotoxicity compared with parent oleanolic acid [2]: significantly increased

Molecule: C[C@H]1[C@H](C)CC[C@]2(C(=O)O)CC[C@]3(C)C(=CC[C@@H]4[C@@]5(C)CC[C@H](OC(=O)CCc6ccc(F)cc6)C(C)(C)C5CC[C@]43C)[C@H]12 (some centres unmarked) [Derivative (II-3), 3-O-parafluorophenylpropionic ursolic acid]
- IC50 [1, 5]: 2.45 ± 0.3 µM
- IC50 [2]: > 165 µM

Molecule: CC1(C)CC[C@]2(C(=O)O)CC[C@]3(C)C(=CC[C@@H]4[C@@]5(C)C[C@@H](O)[C@H](O)C(C)(C)[C@@H]5CC[C@]43C)[C@@H]2C1 [Maslinic acid]
- IC50 ([1]; Trypanosoma brucei, read-out: Tbb (IC50 μM)): 9.41 ± 1.35 µM
- IC50 ([1]; Trypanosoma brucei, read-out: Tbb (IC50 μg/mL)): 4.45 ± 0.64 µg/mL
- SI (Selectivity Index) [1]: 4.6
- IC50 ([2]; Homo sapiens, WI-38, read-out: WI38 (IC50 μM)): 44.1 ± 8.4 µM
- IC50 ([2]; Homo sapiens, WI-38, read-out: WI38 (IC50 μg/mL)): 20.9 ± 3.97 µg/mL
